Results: US20230348516A1, “YKL-40 INHIBITORS AND THEIR THERAPEUTIC APPLICATIONS” (Molecure S.A., priority 2022, published 2023)
pIC50: −log10 of the molar value.

Molecular target: YKL-40 and asialofetuin interaction (Homo sapiens, UniProt P36222)
Test: Orthogonal YKL-40 AlphaScreen assay using biotinylated asialofetuin (AF-biot)
Assay type: binding

Sequence of YKL-40 and asialofetuin interaction (P36222 22-383): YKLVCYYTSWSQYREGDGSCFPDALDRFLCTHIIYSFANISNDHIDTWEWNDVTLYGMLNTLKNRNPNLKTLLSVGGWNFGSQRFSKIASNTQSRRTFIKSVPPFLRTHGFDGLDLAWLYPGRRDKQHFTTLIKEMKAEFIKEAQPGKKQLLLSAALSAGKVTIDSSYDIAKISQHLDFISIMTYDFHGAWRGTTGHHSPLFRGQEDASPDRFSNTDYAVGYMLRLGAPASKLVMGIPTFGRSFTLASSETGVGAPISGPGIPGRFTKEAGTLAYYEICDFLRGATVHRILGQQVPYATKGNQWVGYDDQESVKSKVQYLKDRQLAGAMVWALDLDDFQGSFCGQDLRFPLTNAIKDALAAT

Row | SMILES | interference with YKL-40 and asialofetuin (triantennary LacNac) interaction [%] | pIC50
1 | Cc1cc(C2CCC(N3C[C@H](C(=O)O)OC[C@@H]3Cc3ccc(Cl)cc3)CC2)nn1C.O=C(O)C(F)(F)F (single isomer, unassigned) [Example 11] | 64 | –
2 | Cc1cc(C2CCC(N3C[C@H](C(=O)O)OC[C@@H]3Cc3ccc(Cl)cc3)CC2)nn1C.O=C(O)C(F)(F)F (single isomer, unassigned) [Example 11, 2,2,2-trifluoroacetate] | – | 7.70
